Data on 84 compounds can be found in PubChem BioAssay AID1250 (SRMLSC, 2008).

Calls of active or inactive are those of the source.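 Rule for the calls: active = inhibition of at least 30% at one or more tested concentrations; inactive = inhibition below 30% at every dose.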

A short description of one test: antiviral protection against BTV-induced cell death – arbovirus, BSR cells, confirmation (AID 1250). Conditions: BSR cells, Bluetongue virus CPE, ATP luminescence, 72 h; at 5 µM (top of the series).
As for `O=C(Nc1cccc(Cl)c1)Nc1ccnc(-c2cccnc2)n1`, the CPE inhibition is 23.9% (inactive).

The test is the same for the next values; noted with them: BSR cells, Bluetongue virus CPE, ATP luminescence, 72 h; at 20 µM (top of the series).
With `CC1CC1C(=O)Nc1nc(-c2ccc(Cl)s2)cs1` (centres undefined), the CPE inhibition was 12% (inactive). In the case of `CCc1ccc(CCC(=O)Nc2ccccc2C(=O)O)o1`, the CPE inhibition is 21.9% (inactive).

Take `O=C(c1ccco1)N1CCN(c2nc(-c3ccc(F)cc3)cs2)CC1`: the CPE inhibition is 17.1% (inactive).

`O=C(/C=C/c1ccc2c(c1)OCCCO2)c1ccc2ccccc2c1O`: the CPE inhibition is 18.2% (inactive). Still for that read-out and setting: the same measure for `O=C(O)C(Cc1ccccc1)N=Cc1c(O)c2ccccc2oc1=O` (centres undefined): 7.31% (inactive); for `O=C(Nc1ccccc1C(=O)O)c1ccc(Br)c(S(=O)(=O)NCc2ccccc2)c1`: 21.6% (inactive). The same measure, in the same setting: the result for `COc1ccccc1N1CCN(Cc2ccc(OC)c3ccccc23)CC1` reads 11.1% (inactive).

Regarding `Cc1noc(C)c1C(=O)OCC(=O)Nc1cc(Cl)ccc1Oc1ccccc1`, the CPE inhibition was 22.6% (inactive).

As to `O=C(CSc1ccccc1)Nc1cc(Cl)ccc1Oc1ccccc1`, the CPE inhibition was 3.1% (inactive). Same read-out and setting: the same measure for `CCc1cccc(C)c1NC(=O)CN(C)Cc1ccc(Br)cc1`: 10.2% (inactive); for `O=S(=O)(Nc1ccc(-c2nnc(SCc3ccc(Cl)cc3)o2)cc1)c1ccccc1`: 7.09% (inactive). On the same count and under the same terms, the result for `COc1ccc(CN(C(=O)CSc2nnc(-c3ccc(F)cc3)o2)c2ccc(F)cc2)cc1` reads 21.3% (inactive); that for `O=C(O)CCCC(=O)Nc1nc2n(n1)C(c1ccc(F)cc1)CC(c1ccc(Cl)cc1)N2` (centres undefined), 2.43% (inactive).

Take `O=c1[nH]c(SCc2ccccc2)nnc1-c1ccccc1`: the CPE inhibition was 3.2% (inactive). Consider `Cc1nc(Nc2ccccc2)sc1-c1ccccc1`, for which the CPE inhibition is 3.32% (inactive). The same measure, in the same setting: the same measure for `N=C(N)SCc1nc2ccccc2c(=O)n1-c1ccccc1`: -4.62% (inactive); for `Cc1nn2c(-c3ccccc3)c(-c3ccccc3)nc2[nH]c1=O`: 9.59% (inactive). As for `CC(C)CSC1=NSC2=NC(=O)/C(=C\c3cccs3)C(=N)N12`, the CPE inhibition was 28.6% (inactive). Consider `Cc1ccc(NC(=O)/C(=C/C=C/c2ccccc2)NC(=O)c2ccccc2)cc1`, for which the CPE inhibition was 19.4% (inactive). Turning to `CCOc1ccc(-n2c(=O)[nH]c3sc4c(c3c2=O)CCCC4)cc1`, the CPE inhibition is 16.6% (inactive). For the compound `O=C(CCCN1C(=O)/C(=C/c2cccs2)SC1=S)Nc1cccc(C(=O)O)c1`, the CPE inhibition is 1.7% (inactive). The same measure, in the same setting: the same measure for `Cc1cccc(CSc2nn3c(=O)c(C)nnc3s2)c1`: 19.1% (inactive). The same measure, in the same setting: the result for `O=c1/c(=C/c2ccc(O)c([N+](=O)[O-])c2)sc2nc3ccccc3n12` reads 12.4% (inactive); that for `CCOC(=O)c1c(O)c2c(n(Cc3ccco3)c1=O)CCCC2`, 14.7% (inactive). On to `CC1CC(C)(C)CC2(C1)NC(=O)N(CC(=O)NCCc1c[nH]c3ccccc13)C2=O` (centres undefined), for which the CPE inhibition is 23.6% (inactive).

For `C/C(=N\NS(=O)(=O)c1ccccc1)c1cccc(NC(=O)c2cccc(Cl)c2)c1`, the CPE inhibition is 15.9% (inactive). For `C=CCSc1nnc(NC(=O)CSc2nc3ccccc3o2)s1`, the CPE inhibition is 21.8% (inactive). On to `O=C(N/N=C/c1c(O)n(-c2ccccc2Cl)c(=O)c2ccccc12)c1cccnc1`, for which the CPE inhibition is 26% (inactive). With `CCOc1cccc2sc(NN)nc12`, the CPE inhibition was 14.3% (inactive). The same measure, in the same setting: the same measure for `CCOC(=O)c1csc(NC(=O)CC2CCCC2)n1`: 6.07% (inactive); for `Cc1nn(Cc2ccccc2)c(Cl)c1C(=O)NC1CCCc2ccccc21` (centres undefined): 16.5% (inactive). Take `O=C(Nc1ccn(Cc2ccccc2)n1)c1n[nH]c([N+](=O)[O-])c1Cl`: the CPE inhibition is 14% (inactive). Same read-out and setting: the result for `O=C(O)c1ccccc1Sc1c([N+](=O)[O-])cc(C(F)(F)F)cc1[N+](=O)[O-]` reads 9.2% (inactive); that for `COc1ccc(-c2csc(Nc3ccc(S(=O)(=O)Nc4cc(C)on4)cc3)n2)cc1`, 14.2% (inactive); that for `Cc1ccc2c(c1)c(Sc1ccccc1)c(CC(=O)O)n2C`, -0.49% (inactive). The same measure, in the same setting: the same measure for `FC(F)(F)c1cccc(Oc2ccc3c(C(F)(F)F)cc(C(F)(F)F)nc3n2)c1`: 3.1% (inactive); for `FC(F)(F)c1ccc(Oc2ccc3ccccc3c2Br)nc1`: 1.17% (inactive). Same read-out and setting: the same measure for `Cc1c(C(=O)NC(Cc2ccccc2)c2nc3ccccc3[nH]2)cccc1[N+](=O)[O-]` (centres undefined): 13.5% (inactive); for `COCCn1c(-c2ccccc2Cl)nc2c(c(=O)c3ccccc3n2C)c1=O`: 4.39% (inactive). Regarding `COC(=O)c1ccccc1NC(=O)CN1CCC(NC(=O)c2ccc(C)cc2)CC1`, the CPE inhibition is 21.3% (inactive). On the same count and under the same terms, the result for `Cc1ccc(-n2cccc2/C=C2\C(=N)N3N=C(C(C)C)SC3=NC2=O)cc1` reads 25.2% (inactive); that for `Cc1cccc(CSc2nnc(NC(=O)CSc3nnc(C)s3)s2)c1`, 17.3% (inactive); that for `Cc1ccc2nc(NC(=O)C3CCCN(S(=O)(=O)c4cnc[nH]4)C3)sc2c1` (centres undefined), 22.3% (inactive).

In the case of `CCCn1c2c(c(O)c(C(=O)Nc3nc4ccccc4s3)c1=O)CCCC2`, the CPE inhibition was 19.3% (inactive).

`O=C(O)c1ccccc1Nc1ccc([N+](=O)[O-])cc1`: the CPE inhibition was 24.6% (inactive). On the same count and under the same terms, the result for `CNc1ccccc1C(C)(C)c1cc(-c2cccc(OC)c2)no1` reads 7.83% (inactive); that for `C/C=C/c1ccc(OCCCCOc2ccccc2C(C)=O)c(OC)c1`, 11.9% (inactive). `CC(C)S(=O)(=O)C1=NSC2=NC(=O)/C(=C\c3ccc(-c4cccc(C(=O)O)c4)o3)C(=N)N21`: the CPE inhibition was 24.2% (inactive). On the same count and under the same terms, the result for `COC(=O)c1ccccc1N/C=C/C(=O)c1ccc(Br)cc1` reads 28.6% (inactive); that for `Cc1nn(C)cc1CN(C)Cc1ccc(OCC(O)CN2CCCCC2)cc1` (centres undefined), 11.1% (inactive); that for `CCc1ccc(C2=CC(c3cc(Br)ccc3F)n3ncnc3N2)cc1` (centres undefined), -5.9% (inactive). Regarding `O=[N+]([O-])c1ccc(NCCNCCOc2nonc2-c2ccccc2)c([N+](=O)[O-])c1`, the CPE inhibition is 6.24% (inactive).

As for `Cc1cc(F)ccc1S(=O)(=O)Nc1ncnc2scc(-c3ccc(F)cc3)c12`, the CPE inhibition is 21.7% (inactive). Still for that read-out and setting: the result for `CC(C)(C)c1ccc(C(=O)NC(=S)NCC2CCCO2)cc1` (centres undefined) reads 3.96% (inactive); that for `O=C(CCn1c(=O)sc2ccccc21)NCCCn1ccnc1`, 4.88% (inactive). Consider `Oc1c(Br)cc(C2N=C(c3ccccc3)NO2)cc1Br` (centres undefined), for which the CPE inhibition was 23.9% (inactive). Consider `COc1ccc2ccc(O)c(CN3CC=C(c4ccccc4)CC3)c2c1`, for which the CPE inhibition is 14.6% (inactive). On to `COc1cc2c(cc1NC(=O)CC1SC(N3CCCC3)=NC1=O)oc1ccccc12` (centres undefined), for which the CPE inhibition was 13.7% (inactive). As for `CCOC(=O)C1(Cc2cccc(OC)c2)CCN(Cc2cccc(OC)c2O)CC1`, the CPE inhibition was 24.8% (inactive). Still for that read-out and setting: the result for `C=C(C)CN(CC)C(=O)CSc1nc(O)cc(=O)n1C1CCCC1` reads -1.91% (inactive); that for `CC(C)(CO)CNC(=O)CC1C(=O)NCCN1CC(c1ccccc1)c1ccccc1` (centres undefined), 1.48% (inactive). As for `Cc1csc(NC(=O)c2ccc(C)c(S(=O)(=O)N3CCCCC3)c2)n1`, the CPE inhibition is 24.1% (inactive). In the case of `OC(CNCC1(N2CCCCC2)CCCCC1)COc1ccc(Cl)cc1Cl` (centres undefined), the CPE inhibition was 11.6% (inactive). Same read-out and setting: the result for `O=C(O)c1ccc2[nH]c3c(c2c1)CSCC3` reads 2.13% (inactive). As to `CC(=O)Nc1ccc(NC(=O)COc2ccccc2C(=O)Nc2cccc(Cl)c2Cl)cc1`, the CPE inhibition is 15% (inactive). For the compound `COc1cccc(C(=O)Nc2cccc(C(=O)NC3=NN(c4c(Cl)cc(Cl)cc4Cl)C(=O)C3)c2)c1`, the CPE inhibition is 18.8% (inactive). For `O=C(O)/C(=C\c1ccc(-c2ccc(F)cc2)o1)c1ccccc1`, the CPE inhibition is 24.5% (inactive). Still for that read-out and setting: the result for `C(=N\Nc1nc(-c2ccccc2)cs1)/c1ccco1` reads 20.9% (inactive). As for `CCc1ccc(S(=O)(=O)c2ccc(-n3nc(C)cc3N)cc2)cc1`, the CPE inhibition was 6.14% (inactive).

As to `CCCc1cc2c(OC(=O)CC)c(-c3ccc(C(=O)OCC)o3)c(=O)oc2cc1OC`, the CPE inhibition was 19.6% (inactive).

Consider `CC1=NN(c2nc(-c3ccc(Cl)cc3)cs2)C(=O)C1`, for which the CPE inhibition was 8.37% (inactive). Same read-out and setting: the same measure for `CCOc1ccc(S(=O)(=O)N2CCN(c3ccccc3OC)CC2)c2cccnc12`: 17.1% (inactive). In the case of `O=C/C(=C\Nc1ccc(Cl)cn1)c1nc2cc(Cl)ccc2o1`, the CPE inhibition is 10.2% (inactive).

In the case of `COc1cccc(C2=CC(c3ccc(N(C)C)cc3)n3ncnc3N2)c1` (centres undefined), the CPE inhibition was 8.59% (inactive). The same measure, in the same setting: the result for `CCn1nc(C)c(NC(=O)Nc2cccc(Cl)c2Cl)c1C` reads 2.62% (inactive); that for `O=C(O)c1ccc(COc2ccc3ccccc3c2/C=C2/NC(=O)N(Cc3ccc(F)cc3)C2=O)cc1`, 7.43% (inactive); that for `Cc1cccc(S(=O)(=O)Nc2nc3ccccc3nc2NCc2ccco2)c1`, 12.1% (inactive). On to `Cc1ccc2nc(NC(=O)C3CCN(S(=O)(=O)c4cnc[nH]4)CC3)sc2c1`, for which the CPE inhibition was 14% (inactive). On the same count and under the same terms, the result for `O=C(Nc1nc(-c2ccccc2)cs1)c1ccc(=O)[nH]c1` reads 12% (inactive); that for `CC(=O)Nc1ccc(-c2csc(NC(=O)c3ccc(C)o3)n2)cc1`, 27.8% (inactive).

Consider `CCC(C)Sc1nc2c(c(=O)[nH]1)C(c1cccs1)C1=C(CCCC1=O)N2` (centres undefined), for which the CPE inhibition is 10.1% (inactive). On the same count and under the same terms, the result for `Cc1ccc2nc(-c3ccc(Br)o3)oc(=O)c2c1` reads 21.3% (inactive); that for `Brc1ccccc1/C=N/Nc1ccc2ccccc2n1`, 14.7% (inactive).
